Experimental data reported in patent publication US20210330611A1, “THERAPY FOR NEUROLOGICAL DISEASES/DISORDERS” (priority 2020, published 2021).
“And” between values parts separate entries of the source, which are not always exact repeats. Equal values may be shown once. Where a name gives a salt, the structure may show the parent alone. Read-outs that look alike come from different tables or passages of the source.

Tests used:
[1] = test system: fibrin-induced microglia activation; test: Image-based assay of fibrin-induced microglia activation (HTS and dose response); assay type: cell-based, rat; conditions: for inhibition at 10 µM: Rattus norvegicus, Microglia, read-out: Fibrin % inhibition; for IC50: read-out: Fibrin IC50
[2] = test system: fibrin- and LPS-induced microglia activation; test: cells; assay type: cell-based, rat
[3] = test system: LPS-induced microglia activation; test: Image-based assay of LPS-induced microglia activation (HTS and dose response); assay type: cell-based, rat; conditions: for inhibition at 10 µM: Rattus norvegicus, Microglia, read-out: LPS % inhibition
[4] = test system: primary rat microglia; test: Cell toxicity (dead cells, size <150 μm2) in coated fibrin (cFib) assay;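 for Fibrin % cell toxicity: share of dead cells sized under 150 µm2 at 10 µM in fibrin-stimulated microglia HTS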
[5] = test system: primary rat microglia; test: Cell toxicity (dead cells, size <150 μm2) in LPS assay
[6] = primary microglia HTS, fibrin stimulation, increased cell size (>800 μm^2) as marker of activation
[7] = quadrant by fibrin and LPS inhibition in HTS of 1907 compounds
[8] = 48 h, primary microglia HTS, LPS stimulation, increased cell size (>800 μm^2) as marker of activation
[9] = primary microglia HTS, fibrin stimulation, decreased size (<150 μm^2) as marker of toxicity
[10] = primary microglia HTS, LPS stimulation, decreased size (<150 μm^2) as marker of toxicity
[11] = HTS of 1907 compounds, quadrant by fibrin and LPS inhibition
[12] = primary microglia HTS, 10 μM, LPS-stimulated, cell size >800 μm^2 as marker of activation
[13] = primary microglia HTS, 10 μM, fibrin assay, cell size <150 μm^2 as marker of toxicity
[14] = primary microglia HTS, 10 μM, LPS assay, cell size <150 μm^2 as marker of toxicity
[15] = primary microglia HTS, LPS stimulation, increased cell size (>800 μm^2) as marker of activation
[16] = primary HTS, 10 μM, LPS-stimulated primary microglia
[17] = primary HTS, 10 μM, fibrin assay, dead cells size <150 μm2
[18] = primary HTS, 10 μM, LPS assay, dead cells size <150 μm2
[19] = 48 h, primary microglia HTS, LPS stimulation, activation = cell size >800 μm2
[20] = primary microglia HTS, fibrin stimulation, toxicity = cell size <150 μm2
[21] = primary microglia HTS, LPS stimulation, toxicity = cell size <150 μm2

Compound: CN1CCN(C2=Nc3ccccc3Oc3ccc(Cl)cc32)CC1 [Loxapine]
- inhibition at 10 µM [1, 6]: -41%
- Quadrant (FIG. 5b) [2, 7]: Q4
- inhibition at 10 µM [3, 8]: 9%
- Fibrin % cell toxicity [4, 9]: 0%
- LPS % cell toxicity [5, 10]: 0%

Compound: CN(C)CCCN1c2ccccc2Sc2ccccc21 [Promazine]
- inhibition at 10 µM [1, 6]: 46%
- Quadrant (FIG. 5b) [2, 7]: Q1
- inhibition at 10 µM [3, 8]: 117%
- Fibrin % cell toxicity [4, 9]: 1%
- LPS % cell toxicity [5, 10]: 64%

Compound: C[N+](C)(C)CCCCCC[N+](C)(C)C [Hexamethonium]
- inhibition at 10 µM [1, 6]: 108%
- Quadrant (FIG. 5b) [2, 7]: Q2
- inhibition at 10 µM [3, 8]: 100%
- Fibrin % cell toxicity [4, 9]: 9%
- LPS % cell toxicity [5, 10]: 2%

Compound: C[N+]1(C)[C@@H]2C[C@@H](OC(=O)C(O)(c3cccs3)c3cccs3)C[C@H]1[C@@H]1O[C@@H]12 [Tiotropium]
- inhibition at 10 µM ([1]; primary microglia HTS, 10 μM, fibrin-stimulated, cell size >800 μm^2 as marker of activation): -32%
- Quadrant (FIG. 5b) [2, 11]: Q4
- inhibition at 10 µM [3, 12]: -1%
- Fibrin % cell toxicity [4, 13]: 0%
- LPS % cell toxicity [5, 14]: 0%

Compound: CCOc1ccc2ccccc2c1C(=O)N[C@@H]1C(=O)N2[C@@H]1SC(C)(C)[C@@H]2C(=O)O [Nafcillin Sodium]
- inhibition at 10 µM [1, 6]: -7%
- Quadrant (FIG. 5b) [2, 7]: Q4
- inhibition at 10 µM [3, 8]: 15%
- Fibrin % cell toxicity [4, 9]: 0%
- LPS % cell toxicity [5, 10]: 0%

Compound: Tyrothricin [reference compound]
- IC50 ([1]; Table 1, dose response 0.001-20 μM, triplicates, primary rat microglia, 48 h): 3000 nM
- IC50 ([1]; dose response, fibrin-induced microglia activation): 3000 nM
- Fibrin % inhibition [1, 6]: 89%
- Hit ([2]; HTS hit classification): HIT (Hits were defined as molecules that exhibited greater than 50% inhibition of either fibrin or LPS activation)
- Quadrant (FIG. 5b) ([2]; Table 1, screen at 10 μM): Q2
- Quadrant (FIG. 5b) [2, 7]: Q2
- IC50 ([3]; Table 1, dose response 0.001-20 μM, triplicates, primary rat microglia, 48 h, read-out: LPS IC50): 0.5 µM
- IC50 ([3]; dose response, LPS-induced microglia activation, read-out: LPS IC50): 0.5 µM
- LPS % inhibition [3, 15]: 102%
- Fibrin % cell toxicity [4, 9]: 2%
- LPS % cell toxicity [5, 10]: 2%

Compound: CC(=O)[C@@]1(O)CC[C@H]2[C@@H]3C[C@H](C)C4=CC(=O)C=C[C@]4(C)[C@@]3(F)[C@@H](O)C[C@@]21C [Fluorometholone]
- inhibition at 10 µM [1, 6]: 104%
- Quadrant (FIG. 5b) [2, 7]: Q2
- Fibrin % cell toxicity [4, 9]: 6% and 3%
- LPS % cell toxicity [5, 10]: 1% and 7%

Compound: Carboplatin
- Quadrant (FIG. 5b) ([2]; primary HTS, 10 μM): Q4
- LPS % inhibition [3, 16]: 4% and 7%
- Fibrin % cell toxicity [4, 17]: 1%
- LPS % cell toxicity [5, 18]: 0%

Compound: Benzalkonium Chloride
- Quadrant (FIG. 5b) [2, 7]: Q2
- LPS % inhibition [3, 15]: 122%
- Fibrin % cell toxicity [4, 9]: 71%
- LPS % cell toxicity [5, 10]: 31%

Compound: Nc1nc2ncc(CNc3ccc(C(=O)N[C@@H](CCC(=O)O)C(=O)O)cc3)nc2c(=O)[nH]1 [Folic Acid]
- Quadrant (FIG. 5b) [2, 7]: Q4
- inhibition at 10 µM [3, 19]: 22%
- Fibrin % cell toxicity [4, 20]: 1%
- LPS % cell toxicity [5, 21]: 0% and 1%

Compound: CCC(Cc1c(I)cc(I)c(N)c1I)C(=O)O (stereo not shown) [lopanic Acid]
- Quadrant (FIG. 5b) [2, 11]: Q3
- Cherry-picked Hit (Suppl. Table 7) ([2]; hit classification in microglia HTS): HIT (Hits were defined as molecules that exhibited greater than 50% inhibition of either fibrin or LPS activation)
- IC50 ([3]; LPS-induced microglia activation, dose response, read-out: LPS IC50 (uM) (Suppl. Table 7)): > 20 µM
- IC50 ([4]; read-out: Cell Toxicity IC50 (uM) [cFib assay], cFib assay): > 20 µM
- IC50 ([5]; read-out: Cell Toxicity IC50 (uM) [LPS assay], LPS assay): > 20 µM

Compound: CCCC1O[C@@H]2C[C@H]3[C@@H]4CCC5=CC(=O)C=C[C@]5(C)[C@H]4[C@@H](O)C[C@]3(C)[C@]2(C(=O)CO)O1 (stereo partly shown) [Budesonide]
- inhibition at 10 µM [1, 6]: 110%
- Quadrant (FIG. 5b) [2, 7]: Q2
- Fibrin % cell toxicity [4, 9]: 3% and 6%
- LPS % cell toxicity [5, 10]: 5% and 1%

Compound: CN1Cc2c(N)cccc2C(c2ccccc2)C1 (stereo not shown) [Nomifensine]
- Quadrant (FIG. 5b) [2, 7]: Q4
- Fibrin % cell toxicity [4, 9]: 0%
- LPS % cell toxicity [5, 10]: 0%

Compound: NC[C@H](O)c1ccc(O)c(O)c1 [Norepinephrine]
- Quadrant (FIG. 5b) [2, 7]: Q4
- Fibrin % cell toxicity [4, 9]: 1%
- LPS % cell toxicity [5, 10]: 0%

Compound: OC[C@H]1O[C@@H](n2cnc3c(O)ncnc32)[C@H](O)[C@@H]1O [Inosine]
- inhibition at 10 µM ([1]; primary microglia HTS, fibrin stimulation, activation = cell size >800 μm2): -31%
- inhibition at 10 µM [1, 6]: 111%
- inhibition at 10 µM [3, 19]: -11%
- inhibition at 10 µM [3, 8]: 115%
- Fibrin % cell toxicity [4, 20]: 1%
- Fibrin % cell toxicity [4, 9]: 7%
- LPS % cell toxicity [5, 21]: 0%
- LPS % cell toxicity [5, 10]: 2%

Compound: CC[C@@H](CO)NC(=O)[C@@H]1C=C2c3cccc4c3c(cn4C)C[C@H]2N(C)C1 [Methysergide Maleate]
- Quadrant (FIG. 5b) [2, 7]: Q4
- Fibrin % cell toxicity [4, 9]: 0% and 1%
- LPS % cell toxicity [5, 10]: 0%

Compound: CCN1CCCC1CNC(=O)c1cc(S(N)(=O)=O)ccc1OC (stereo not shown) [Sulpiride]
- Quadrant (FIG. 5b) [2, 11]: Q4
- inhibition at 10 µM [3, 12]: 11%
- LPS % inhibition [3, 12]: 7%
- Fibrin % cell toxicity [4, 13]: 1%
- LPS % cell toxicity [5, 14]: 0%

Compound: NCC1(CC(=O)O)CCCCC1 [Gabapentin]
- Quadrant (FIG. 5b) [2, 7]: Q4
- inhibition at 10 µM [3, 19]: 19%
- Fibrin % cell toxicity [4, 20]: 1%
- LPS % cell toxicity [5, 21]: 1% and 0%

Compound: CC[C@H](C)[C@H]1O[C@]2(CC[C@@H]1C)C[C@@H]1C[C@@H](C/C=C(\C)[C@@H](O[C@H]3C[C@H](OC)[C@@H](O[C@H]4C[C@H](OC)[C@@H](O)[C@H](C)O4)[C@H](C)O3)[C@@H](C)/C=C/C=C3\CO[C@@H]4[C@H](O)C(C)=C[C@@H](C(=O)O1)[C@]34O)O2 [Ivermectin]
- Quadrant (FIG. 5b) [2, 7]: Q4
- LPS % inhibition ([3]; primary microglia HTS, LPS stimulation, activation = cell size >800 μm2): 10% and 19%
- Fibrin % cell toxicity [4, 20]: 1% and 0%
- LPS % cell toxicity [5, 21]: 0%

Compound: C[N+]1(C)[C@@H]2C[C@@H](OC(=O)[C@H](CO)c3ccccc3)C[C@H]1[C@@H]1O[C@@H]12 [Methscopolamine Bromide]
- Quadrant (FIG. 5b) [2, 7]: Q4
- Fibrin % cell toxicity [4, 9]: 1%
- LPS % cell toxicity [5, 10]: 0%

Compound: CN(C)CC/C=C1/c2ccccc2Sc2ccc(Cl)cc21 [Chlorprothixene]
- Quadrant (FIG. 5b) ([2]; primary HTS, 10 μM): Q4
- Fibrin % cell toxicity [4, 17]: 1%
- LPS % cell toxicity [5, 18]: 1% and 0%

Compound: CC(C)(O/N=C(\C(=O)N[C@@H]1C(=O)N2C(C(=O)[O-])=C(C[n+]3ccccc3)CS[C@H]12)c1csc(N)n1)C(=O)O [Ceftazidime]
- Quadrant (FIG. 5b) ([2]; primary HTS, 10 μM): Q4
- inhibition at 10 µM [3, 16]: 17%
- LPS % inhibition [3, 16]: 30%
- Fibrin % cell toxicity [4, 17]: 1%
- LPS % cell toxicity [5, 18]: 1%

Compound: Nc1ccn([C@@H]2CS[C@H](CO)O2)c(=O)n1 [Lamivudine]
- Quadrant (FIG. 5b) [2, 7]: Q4
- Fibrin % cell toxicity [4, 20]: 1%
- LPS % cell toxicity [5, 21]: 0%

Compound: CNC[C@H](O)[C@@H](O)[C@H](O)[C@H](O)CO [Meglumine]
- Quadrant (FIG. 5b) [2, 7]: Q4
- Fibrin % cell toxicity [4, 9]: 0% and 1%
- LPS % cell toxicity [5, 10]: 0% and 1%

Compound: CCC(=O)O[C@]1(C(=O)SCF)[C@H](C)C[C@H]2[C@@H]3C[C@H](F)C4=CC(=O)C=C[C@]4(C)[C@@]3(F)[C@@H](O)C[C@@]21C [Fluticasone Propionate]
- inhibition at 10 µM [1, 6]: 108%
- Quadrant (FIG. 5b) [2, 7]: Q2
- Fibrin % cell toxicity [4, 9]: 7% and 5%
- LPS % cell toxicity [5, 10]: 3% and 4%

Compound: CC(=O)/N=c1/sc(S(N)(=O)=O)nn1C [Methazolamide]
- Quadrant (FIG. 5b) [2, 7]: Q4
- inhibition at 10 µM [3, 8]: 10%
- Fibrin % cell toxicity [4, 9]: 1%
- LPS % cell toxicity [5, 10]: 0%

Compound: CN(C)CCCC1(c2ccc(F)cc2)OCc2cc(C#N)ccc21 (stereo not shown) [Citalopram]
- Quadrant (FIG. 5b) ([2]; primary HTS, 10 μM): Q4
- inhibition at 10 µM [3, 16]: 10%
- LPS % inhibition [3, 16]: 8%
- Fibrin % cell toxicity [4, 17]: 0%
- LPS % cell toxicity [5, 18]: 0%

Compound: CC(C)[C@H]1CC[C@H](C(=O)N[C@H](Cc2ccccc2)C(=O)O)CC1 [Nateglinide]
- Quadrant (FIG. 5b) [2, 7]: Q4
- Fibrin % cell toxicity [4, 9]: 1%
- LPS % cell toxicity [5, 10]: 1% and 0%

Compound: Oc1ccc(C2CNCCc3c2cc(O)c(O)c3Cl)cc1 (stereo not shown) [Fenoldopam]
- Quadrant (FIG. 5b) [2, 7]: Q4
- Fibrin % cell toxicity [4, 20]: 1% and 0%
- LPS % cell toxicity [5, 21]: 0%
